# Results: US10023558B2, “Compounds” (CHIESI FARMACEUTICI S.P.A., priority 2016, dated 2018)
# Biological target: T1, human neutrophil elastase (HNE) (Homo sapiens, UniProt P08246)
# T1 construct: purchased Sigma E8140
# T1 sequence (P08246 30-247 limits assumed): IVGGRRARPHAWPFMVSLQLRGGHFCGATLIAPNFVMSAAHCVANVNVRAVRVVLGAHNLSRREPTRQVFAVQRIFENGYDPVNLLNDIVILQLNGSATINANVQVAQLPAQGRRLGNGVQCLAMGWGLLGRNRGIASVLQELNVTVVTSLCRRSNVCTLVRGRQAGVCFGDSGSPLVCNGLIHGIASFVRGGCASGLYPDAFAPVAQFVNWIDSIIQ
# Assay: HNE Enzyme Assay (fluorogenic peptide substrate MeOSuc-Ala-Ala-Pro-Val-AMC)
# Type: biochemical
# Conditions: human leukocyte elastase 0.00072 U/mL, substrate 100 μM, 25° C., 30 minutes, at least two separate experiments; read-out: HNE inhibition (IC50 values)
# Protocol: Compounds of this invention were tested for potency in a human neutrophil elastase (HNE) enzyme activity assay.
# Assays were performed in 96-well plates in a total assay volume of 100 μL. The final concentration of elastase enzyme (human leukocyte elastase, Sigma E8140) was 0.00072 U/mL. The peptide substrate (MeOSuc-Ala-Ala-Pro-Val-AMC, Calbiochem #324740) was used at a final concentration of 100 μM. The final concentration of DMSO was 1% in the assay buffer (0.05M Tris.HCl, 0.1M NaCl, 0.1M CaCl2, 0.0005% Brij-35, pH 7.5). The enzymatic reaction was started by addition of the enzyme and incubated at 25° C. for 30 minutes. After incubation, the reaction was stopped by addition of soybean trypsin inhibitor (Sigma T9003) at a final concentration of 50 μg/well. Fluorescence was measured using a Molecular Devices fluorescence plate reader using 380 nm excitation and 460 nm emission wavelengths.
# A concentration response to each compound was performed and the effect of compound in each experiment was expressed as a percentage inhibition of the control enzyme fluorescence. Dose response curves were plotted and compound potency (IC50) was determined. Compounds were tested in at least two separate experiments.
row,SMILES,IC50
1,"Cc1c(-c2ccnn2-c2ccc(C#N)cc2)n(C(=O)N[C@H]2CC[C@@H]([N+](C)(C)Cc3ccccc3)CC2)c(=O)n1-c1cccc(C(F)(F)F)c1 [Example 46, Benzyl-(cis-4-{[5-[2-(4-cyano-phenyl)-2H-pyrazol-3-yl]-4-methyl-2-oxo-3-(3-trifluoromethyl-phenyl)-2,3-dihydro-imidazole-1-carbonyl]-amino}-cyclohexyl)-dimethyl-ammonium bromide]",1 to 10 nM
2,"Cc1c(-c2ccnn2-c2ccc(C#N)cc2)n(C(=O)NC(C)C2CC[N+](C)(C)CC2)c(=O)n1-c1cccc(C(F)(F)F)c1 (stereo not shown) [Example 35, 4-(1-{[5-[2-(4-Cyano-phenyl)-2H-pyrazol-3-yl]-4-methyl-2-oxo-3-(3-trifluoromethyl-phenyl)-2,3-dihydro-imidazole-1-carbonyl]-amino}-ethyl)-1,1-dimethyl-piperidinium benzene sulfonate]",< 1 nM
3,"Cc1c(-c2ccnn2-c2ccc(C#N)cc2)n(C(=O)N[C@@H](C)C(=O)N2CC[N+](C)(C)CC2)c(=O)n1-c1cccc(C(F)(F)F)c1 [Example 50, 4-((S)-2-{[5-[2-(4-Cyano-phenyl)-2H-pyrazol-3-yl]-4-methyl-2-oxo-3-(3-trifluoromethyl-phenyl)-2,3-dihydro-imidazole-1-carbonyl]-amino}-propionyl)-1,1-dimethyl-piperazin-1-ium benzene sulfonate]",< 1 nM
4,"Cc1c(-c2ccnn2-c2ccc(C#N)cc2)n(C(=O)N[C@@H]2CC[N+](C)(C)C2)c(=O)n1-c1cccc(C(F)(F)F)c1 [Example 33, (R)-3-{[5-[2-(4-Cyano-phenyl)-2H-pyrazol-3-yl]-4-methyl-2-oxo-3-(3-trifluoromethyl-phenyl)-2,3-dihydro-imidazole-1-carbonyl]-amino}-1,1-dimethyl-pyrrolidinium benzenesulfonate]",1 to 10 nM
5,"Cc1c(-c2ccnn2-c2ccc(C#N)cc2)n(C(=O)N[C@@H]2C[C@@H]3CN(C(=O)OC(C)(C)C)C[C@@H]3C2)c(=O)n1-c1cccc(C(F)(F)F)c1 [Example 10, (3aS,5R,6aR)-5-{[5-[2-(4-Cyano-phenyl)-2H-pyrazol-3-yl]-4-methyl-2-oxo-3-(3-trifluoromethyl-phenyl)-2,3-dihydro-imidazole-1-carbonyl]-amino}-hexahydro-cyclopenta[c]pyrrole-2-carboxylic acid tert-butyl ester]",< 1 nM
6,"Cc1c(-c2ccnn2-c2ccc(C#N)cc2)n(C(=O)NC(C)(C)c2ncc(C[N+](C)(C)C)o2)c(=O)n1-c1cccc(C(F)(F)F)c1 [Example 78, [2-(1-{[5-[2-(4-Cyano-phenyl)-2H-pyrazol-3-yl]-4-methyl-2-oxo-3-(3-trifluoromethyl-phenyl)-2,3-dihydro-imidazole-1-carbonyl]-amino}-1-methyl-ethyl)-oxazol-5-ylmethyl]-trimethyl-ammonium benzene sulfonate]",< 1 nM
7,"Cc1c(-c2ccnn2-c2ccc(C#N)cc2)n(C(=O)N[C@@H](C)C(=O)NC2CCN(C)CC2)c(=O)n1-c1cccc(C(F)(F)F)c1 [Example 13, 5-[2-(4-Cyano-phenyl)-2H-pyrazol-3-yl]-4-methyl-2-oxo-3-(3-trifluoromethyl-phenyl)-2,3-dihydro-imidazole-1-carboxylic acid [(S)-1-(1-methyl-piperidin-4-ylcarbamoyl)-ethyl]-amide]",< 1 nM
8,"Cc1c(-c2ccnn2-c2ccc(C#N)cc2)n(C(=O)N[C@@H](C)C(=O)N(C)C2CC[N+](C)(C)CC2)c(=O)n1-c1cccc(C(F)(F)F)c1 [Example 91, 4-[((S)-2-{[5-[2-(4-Cyano-phenyl)-2H-pyrazol-3-yl]-4-methyl-2-oxo-3-(3-trifluoromethyl-phenyl)-2,3-dihydro-imidazole-1-carbonyl]-amino}-propionyl)-methyl-amino]-1,1-dimethyl-piperidinium benzene sulfonate]",< 1 nM
9,"Cc1c(-c2ccnn2-c2ccc(C#N)cc2)n(C(=O)NC2CCN(C(=O)OCc3ccccc3)CC2)c(=O)n1-c1cccc(C(F)(F)F)c1 [Example 3, 4-{[5-[2-(4-Cyano-phenyl)-2H-pyrazol-3-yl]-4-methyl-2-oxo-3-(3-trifluoromethyl-phenyl)-2,3-dihydro-imidazole-1-carbonyl]-amino}-piperidine-1-carboxylic acid benzyl ester]",< 1 nM
10,"Cc1c(-c2ccnn2-c2ccc(C#N)cc2)n(C(=O)N[C@H]2C[C@@H]3CN(C(=O)OC(C)(C)C)C[C@@H]3C2)c(=O)n1-c1cccc(C(F)(F)F)c1 [Example 12, (3aR,5S,6aS)-5-{[5-[2-(4-Cyano-phenyl)-2H-pyrazol-3-yl]-4-methyl-2-oxo-3-(3-trifluoromethyl-phenyl)-2,3-dihydro-imidazole-1-carbonyl]-amino}-hexahydro-cyclopenta[c]pyrrole-2-carboxylic acid tert-butyl ester]",< 1 nM
11,"Cc1c(-c2ccnn2-c2ccc(C#N)cc2)n(C(=O)N[C@H]2CC[C@H]([N+](C)(C)Cc3ncon3)CC2)c(=O)n1-c1cccc(C(F)(F)F)c1 [Example 72, (Trans-4-{[5-[2-(4-cyano-phenyl)-2H-pyrazol-3-yl]-4-methyl-2-oxo-3-(3-trifluoromethyl-phenyl)-2,3-dihydro-imidazole-1-carbonyl]-amino}-cyclohexyl)-dimethyl-[1,2,4]oxadiazol-3-ylmethyl-amnionium chloride]",< 1 nM
12,"Cc1c(-c2ccnn2-c2ccc(C#N)cc2)n(C(=O)N[C@H](C)c2ccncc2)c(=O)n1-c1cccc(C(F)(F)F)c1 [Example 6, 5-[2-(4-Cyano-phenyl)-2H-pyrazol-3-yl]-4-methyl-2-oxo-3-(3-trifluoromethyl-phenyl)-2,3-dihydro-imidazole-1-carboxylic acid ((R)-1-pyridin-4-yl-ethyl)-amide]",< 1 nM
13,"Cc1c(-c2ccnn2-c2ccc(C#N)cc2)n(C(=O)N[C@@H](C)C(=O)N2CCC([N+](C)(C)C)CC2)c(=O)n1-c1cccc(C(F)(F)F)c1 [Example 69, [1-((S)-2-{[5-[2-(4-Cyano-phenyl)-2H-pyrazol-3-yl]-4-methyl-2-oxo-3-(3-trifluoromethyl-phenyl)-2,3-dihydro-imidazole-1-carbonyl]-amino}-propionyl)-piperidin-4-yl]-trimethyl-ammonium benzene sulfonate]",< 1 nM
14,"Cc1c(-c2ccnn2-c2ccc(C#N)cc2)n(C(=O)N[C@@H](C)c2ccc(CN(C)C)cc2)c(=O)n1-c1cccc(C(F)(F)F)c1 [Example 14, 5-[2-(4-Cyano-phenyl)-2H-pyrazol-3-yl]-4-methyl-2-oxo-3-(3-trifluoromethyl-phenyl)-2,3-dihydro-imidazole-1-carboxylic acid [(S)-1-(4-dimethylaminomethyl-phenyl)-ethyl]-amide]",< 1 nM
15,"Cc1c(-c2ccnn2-c2ccc(C#N)cc2)n(C(=O)N[C@H]2CC[C@H](NC(=O)CN(C)C)CC2)c(=O)n1-c1cccc(C(F)(F)F)c1 [Example 26, 5-[2-(4-Cyano-phenyl)-2H-pyrazol-3-yl]-4-methyl-2-oxo-3-(3-trifluoromethyl-phenyl)-2,3-dihydro-imidazole-1-carboxylic acid [trans-4-(2-dimethylamino-acetylamino)-cyclohexyl]-amide]",< 1 nM
16,"CC[N+](C)(C)C[C@H]1CC[C@@H](NC(=O)n2c(-c3ccnn3-c3ccc(C#N)cc3)c(C)n(-c3cccc(C(F)(F)F)c3)c2=O)CC1 [Example 55, (Cis-4-{[5-[2-(4-cyano-phenyl)-2H-pyrazol-3-yl]-4-methyl-2-oxo-3-(3-trifluoromethyl-phenyl)-2,3-dihydro-imidazole-1-carbonyl]-amino}-cyclohexylmethyl)-ethyl-dimethyl-ammonium benzene sulfonate]",1 to 10 nM
17,"Cc1c(-c2ccnn2-c2ccc(C#N)cc2)n(C(=O)N[C@H]2CC[C@H](CNC(=O)C[N+](C)(C)C)CC2)c(=O)n1-c1cccc(C(F)(F)F)c1 [Example 86, {[(Trans-4-{[5-[2-(4-cyano-phenyl)-2H-pyrazol-3-yl]-4-methyl-2-oxo-3-(3-trifluoromethyl-phenyl)-2,3-dihydro-imidazole-1-carbonyl]-amino}-cyclohexylmethyl)-carbamoyl]-methyl}-trimethyl-ammonium benzene sulfonate]",< 1 nM
18,"Cc1c(-c2ccnn2-c2ccc(C#N)cc2)n(C(=O)N[C@@H](C)C(=O)N2CCC(N(C)C)CC2)c(=O)n1-c1cccc(C(F)(F)F)c1 [Example 19, 5-[2-(4-Cyano-phenyl)-2H-pyrazol-3-yl]-4-methyl-2-oxo-3-(3-trifluoromethyl-phenyl)-2,3-dihydro-imidazole-1-carboxylic acid [(S)-2-(4-dimethylamino-piperidin-1-yl)-1-methyl-2-oxo-ethyl]-amide]",< 1 nM
19,"Cc1c(-c2ccnn2-c2ccc(C#N)cc2)n(C(=O)NC(C)(C)c2cc[n+](C)cc2)c(=O)n1-c1cccc(C(F)(F)F)c1 [Example 47, 4-(1-{[5-[2-(4-Cyano-phenyl)-2H-pyrazol-3-yl]-4-methyl-2-oxo-3-(3-trifluoromethyl-phenyl)-2,3-dihydro-imidazole-1-carbonyl]-amino}-1-methyl-ethyl)-1-methyl-pyridinium benzene sulfonate]",< 1 nM
